Tests used:
normal mouse = assay: Morris water maze test in normal (wild type) mice; format: in vivo; conditions: normal mouse treated with peptide, IP
Method: Male C57BL/6J wild type mice and double transgenic B6.Cg-Tg (APPswe, PSENdE9) 85Dbo Mmjax (APP/PS1) AD-model mice were obtained from Jackson Laboratories (Bar Harbor, Me., USA). The brains of the double transfected mice express Swedish mutation-containing chimeric mouse-human amyloid precursor protein (Mo/HuAPP695swe) and mutant human presenilin 1 protein (PS1-dE9). The mice were fed with an unlimited supply of food and water at an animal breeding ground of a university at a temperature of 23° C., at the relative humidity of 60±10% and in the black and light cycle of 12 h/12 h. […]
The Morris Underwater Maze Test System was constructed as a circular water tank with a diameter of 100 cm and a height of 40 cm containing 15.5 cm depth of water (temperature of 23±1° C.) which was opaque with white ink added. […] The delay time for escaping from the water maze (the time to find the hidden escape platform) was calculated for each trial. […] For the probe experiment, the platform was removed, each mouse was allowed to freely swim for 60 seconds, the amount of time the mouse spent in the target quadrant was measured, and the number of platform positions the mouse passed by (where the platform was located during the hidden platform training). […] All data were recorded by using video-tracking software (SMART, Panlab Harward Apparatus, Bioscience Company, Holliston, Mass., USA).

[1] = tested on: primary hippocampus neurons; assay: In vitro electrophysiological analysis (AMPAR-mediated mEPSCs); format: cell-based, Sprague-Dawley rats; conditions: compared to the Aβ group, various concentrations
Method: Primary hippocampus neurons isolated from E19 Sprague-Dawley rats were cultured to a density of 150 cells/mm^2. AMPA receptor (AMPAR)-mediated miniature excitatory postsynaptic currents (mEPSCs) were recorded by using conventional whole-cell techniques. When primary hippocampus neurons were filled with an internal solution, the electrode resistance was varied from 3 MΩ to 5 MΩ.
The inventors of the present specification performed current measurements by using an Axopatch 200A patch-clamp amplifier (Molecular Devices, Sunnyvale, Calif.).
The voltage of the membrane and the voltage of current, commands, and digitization were adjusted by using Digidata 1322A connected to Clampex 9.2 (Molecular Devices, Sunnyvale, Calif.) of the pClamp software package on an IBM-compatible computer. The inventors of the present specification analyzed data by using Clampfit (Molecular Devices, Sunnyvale, Calif.) and Prism 4.0 (GraphPad, San Diego, Calif.). The current was low-pass filtered at 2 kHz by using an amplifiers four-pole Bessel filter. […]
The cumulative probability curve of mEPSCs was calculated by using Clampfit 9.0 software and Prism 4.0 (GraphPad, San Diego, Calif.). […]

RGPCG (adiponectin receptor-activating peptide) [5AA1]
latency (time to find the hidden escape platform) (normal mouse): less than 10 seconds | mEPSC frequency [1]: statistically significantly increased
